Literature values in article PMC3674230 (Chemical communications (Cambridge, England), 2012).
pIC50: −log10 of the molar value.

Tested on: Zn(II)-dependent matrix metalloproteinases (MMP)
Settings: direct metal coordination

SMILES: CC(=O)NO [acetohydroxamic acid]
- pIC50: ~1.60
